Measurements as given in patent US20260167972A1, “AMINO ACID DERIVATIVES AS NOVEL DELIVERY AGENTS FOR FUNCTIONAL DELIVERY OF OLIGONUCLEOTIDES” (University of Rochester, priority 2022, published 2026).
“Also recorded” adds a separate entry of the source.

Columns and labels:
[1] = Transmission electron microscopy of N-X-Phe-DAP/siRNA nanoparticles; type: physicochemical; conditions: for Diameter (nm), TEM: N-X-Phe-DAP/siRNA nanoparticles, 5 μM derivative, 30 nM siRNA, ± standard deviation; for morphology of siRNA nanoparticles/aggregates: TEM images, FIG. 4
Experimental: Each N-X-Phe-DAP derivative (100 μM) was mixed with siRNA (600 nM) in H2O for 30 minutes, followed by dilution of this mixture into DMEM cell culture media to final concentrations of 5 μM N-X-Phe-DAP derivative and 30 nM siRNA. Dynamic light scattering (DLS) and transmission electron microscopy (TEM) were utilized to analyze the physical characteristics of the resulting N-X-Phe-DAP/siRNA nanoparticles (Table 2, FIG. 4). […] Average diameter (nm), determined by dynamic light scattering (DLS) and TEM imaging, is reported as the average of […] with the error reported as the standard deviation of the mean. Binding affinity (Kd) of each agent to siRNA was determined by a slot blot filtration assay with values reported as the average of three measurements and error reported as the standard deviation of the mean. […] (B) Diameter (nm) determined by TEM (n=9, ***p≤0.001 ****p≤0.0001).
Transmission Electron Microscopy: N-X-Phe-DAP derivatives (100 μM) were complexed with siRNA (600 nM) in Ultrapure™ DNase/RNase-Free Distilled Water (Invitrogen 10977015) and allowed to incubate for 30 minutes at room temperature. These solutions were then diluted into water to give final concentrations of 5 μM Phe derivative and 30 nM siRNA. Samples (5 μL) were spotted on 200 mesh carbon coated copper grids and excess solvent was removed by capillary action with filter paper after 60 seconds. Grids were then stained with uranyl acetate (5 μL) for 60 seconds by excess solvent was removed by capillary action with filter paper. Grids were left to dry for 10 minutes. Images were taken using a Hitachi 7650 transmission electron microscope with an accelerating voltage of 80 kV.

[2] = test system: thyroid transcription factor-1 (TTF-1) mRNA expression in A549 lung carcinoma cells; assay: TTF-1 knockdown determination by RT-qPCR; type: cell-based, human; set-up: knockdown (reduction) of TTF-1 mRNA: concentration or dose not given beside the values; conditions: for Relative TTF-1 mRNA Expression (Normalized to GAPDH) / knockdown (reduction) of TTF-1 mRNA: A549 cells, TTF-1 siRNA; for Relative TTF-1 mRNA Expression (Normalized to GAPDH): 4 h dosing then 48 h incubation; for knockdown (reduction) of TTF-1 mRNA: normalized to GAPDH; for knockdown efficacy group: relative to Lipofectamine
From the text: Finally, N-X-Phe derivatives achieved functional delivery of siRNA. To verify delivery of functional siRNA using N-X-Phe-DAP/siRNA particles, relative thyroid transcription factor-1 (TTF-1) mRNA expression normalized to GAPDH in A549 lung carcinoma cells was quantified against knockdown efficiencies with Lipofectamine as a control delivery agent (FIG. 6, Table 3). […] “Scrambled” is control siRNA delivered with Lipofectamine. TTF-1 is delivery of TTF-1 siRNA with Lipofectamine (n=5, *p≤0.05, **p≤0.01, ****p≤0.0001).
Sample Preparation for Cell-Based Experiments: For delivery analysis and functional knockdown, N-X-Phe-DAP derivatives (10 μL, 1 mM) or Lipofectamine 3000 (6 μL) was mixed with TTF-1 siRNA (Santa Cruz Biotechnology sc-36756, 6 μL, 10 μM) in Ultrapure™ DNase/RNase-Free Distilled Water (Invitrogen 10977015) to give a final volume of 100 μL. These mixtures were incubated for 30 minutes at room temperature, followed by dilution into 1×DMEM (Gibco 11965092, 1.9 mL). For cytotoxicity assays, N-X-Phe-DAP derivatives (10 μL, 1 mM) were diluted into 1×DMEM (Gibco 11965092, 1.9 mL).
TTF-1 Knockdown Determination: All knockdown experiments were performed in triplicate. A549 cells were seeded at a density of 1.05×10^5 cells/well in a 96-well plate (200 μL) and grown to 70-90% confluency. Cells were washed twice with 1×PBS (200 μL/well), N-X-Phe-DAP/siRNA samples were added (200 μL/well), and mixtures were incubated for 4 h at 37° C., 5% CO2. After 4 h, the media was removed, cells were washed with 1×PBS, wells were replenished with complete media containing 1×DMEM (Gibco 11965092), 10% fetal bovine serum (FBS, Invitrogen 26140087), and 1× antibiotic-antimycotic (Gibco 15240-062) and incubated an additional 48 h.
Cells were lysed and RNA was extracted using an Aurum Total RNA Mini Kit (Bio-Rad 7326820). In brief, cells were lysed with Lysis solution containing 1% β-mercaptoethanol (200 μL). Lysate was then mixed with 70% EtOH (200 μL) and processed using QIAshredder homogenizer columns (Qiagen 79656). Homogenate was then transferred to Aurum RNA binding columns, washed with Low Stringency Wash Solution, and incubated with diluted DNase I solution (80 μL) for 15 minutes at RT. Samples were then serially washed with High and Low Stringency Wash Solutions and RNA was eluded from the column with Ultrapure™ DNase/RNase-Free Distilled Water (Invitrogen 10977015, 80 μL). Recovered RNA was quantified on a Nanodrop One system and samples were diluted in Ultrapure™ DNase/RNase-Free Distilled Water (Invitrogen 10977015, 2 ng/μL). Relative TTF-1 knockdown was quantified by RT-qPCR
An iScript cDNA Synthesis Kit (Bio-Rad 1708891) was used for reverse transcription of extracted RNA samples. In brief, samples were prepared by combining 5× iScript Reaction Mix (4 μL), iScript Reverse Transcriptase (1 μL), extracted RNA (12.5 μL, 2 ng/μL), and Ultrapure™ DNase/RNase-Free Distilled Water (Invitrogen 10977015, 2.5 μL). Samples were incubated on a Bio-Rad Thermal Cycler using the following protocol: 5 min priming at 25° C., 20 min reverse transcription at 40° C., and 1 min reverse transcriptase inactivation at 95° C. Recovered cDNA was quantified on a Nanodrop One and samples were diluted in Ultrapure™ DNase/RNase-Free Distilled Water (Invitrogen 10977015, 50 ng/μL). Gene expression was quantified utilizing qPCR. A primer stock solution (750 nM, 267 μL, H2O) of TTF-1 (Santa Cruz Biotechnology, sc-36756-PR) or GAPDH (Santa Cruz Biotechnology, sc-35448-PR) primer pairs were prepared by dilution of Primer A (20 μL, 10 μM) and Primer B (20 μL, 10 μM) into Ultrapure™ DNase/RNase-Free Distilled Water (Invitrogen 10977015, 227 μL). Samples were prepared in triplicate by combining 2× iTaq Universal SYBR Green Super Mix (5 μL, Bio-Rad), TTF-1 or GAPDH primer stock (4 μL, 750 nM), and recovered cDNA (1 μL, 50 ng/μL) in sterile qPCR tubes. Quantitative Ct values were obtained by running samples on a Bio-Rad CFX96 Touch using the “PWRUP60” protocol. […]

cells = assay: Delivery of fluorescent protein encoding mRNA and plasmid DNA into cells (FIG. 50); type: cell-based; conditions: 14 nM 1-Nap-Phe-DAP, 24 hours
Experimental: FIG. 50 has images of cells treated with a mixture of 1-Nap-Phe-DAP with fluorescent protein encoding mRNA (panel A) and plasmid DNA (panel B). […] In this example, 14 nM of the 1-Nap-Phe-DAP was used with 1 microgram of mRNA or pDNA for 24 hours, after which the cells were images.

SMILES: NCCCNC(=O)[C@H](Cc1ccccc1)NC(=O)Cc1cccc2ccccc12 [1-Nap-Phe-DAP]
- Diameter (nm), TEM [1]: 211 ± 17 nm
- morphology of siRNA nanoparticles/aggregates [1]: spherical micelle-like structures
- Relative TTF-1 mRNA Expression (Normalized to GAPDH) [2]: 13.8 ± 3.7
- knockdown (reduction) of TTF-1 mRNA [2]: 86%
- knockdown efficacy group [2]: highly effective knockdown (dramatically improved relative to Lipofectamine)
- delivery of fluorescent protein encoding mRNA into cells (cells; 1 microgram mRNA, FIG. 50 panel A): fluorescence visible in the cytosol
- delivery of plasmid DNA into cells (cells; 1 microgram pDNA, FIG. 50 panel B): fluorescence visible in the cytosol

SMILES: NCCCNC(=O)[C@H](Cc1ccccc1)NC(=O)Cc1ccc2ccccc2c1 [2-Nap-Phe-DAP]
- Diameter (nm), TEM [1]: 450 ± 27 nm
- morphology of siRNA nanoparticles/aggregates [1]: spherical micelle-like structures
- Relative TTF-1 mRNA Expression (Normalized to GAPDH) [2]: 13.4 ± 1.4
- knockdown (reduction) of TTF-1 mRNA [2]: 87%
- knockdown efficacy group [2]: highly effective knockdown (dramatically improved relative to Lipofectamine)

SMILES: NCCCNC(=O)[C@H](Cc1ccccc1)NC(=O)OCc1ccccc1 [Cbz-Phe-DAP]
- Diameter (nm), TEM [1]: 93 ± 9 nm
- morphology of siRNA nanoparticles/aggregates [1]: smaller spheres
- Relative TTF-1 mRNA Expression (Normalized to GAPDH) [2]: 30.9 ± 3.0
- knockdown (reduction) of TTF-1 mRNA [2]: approximately 70%
- knockdown efficacy group [2]: effective knockdown (slightly improved or similar relative to Lipofectamine)

SMILES: NCCCNC(=O)[C@H](Cc1ccccc1)NC(=O)C1CCCCC1 [Cyc-Phe-DAP]
- Diameter (nm), TEM [1]: 71 ± 2 nm
- morphology of siRNA nanoparticles/aggregates [1]: smaller spheres
- knockdown efficacy group [2]: ineffective knockdown (less effective than Lipofectamine)

SMILES: NCCCNC(=O)[C@H](Cc1ccccc1)NC(=O)CC1c2ccccc2-c2ccccc21 [Fm-Phe-DAP]
- Diameter (nm), TEM [1]: 163 ± 10 nm
- morphology of siRNA nanoparticles/aggregates [1]: spherical micelle-like structures
- Relative TTF-1 mRNA Expression (Normalized to GAPDH) [2]: 37.9 ± 8.3
- knockdown (reduction) of TTF-1 mRNA [2]: ~62%
- knockdown efficacy group [2]: effective knockdown (slightly improved or similar relative to Lipofectamine)

SMILES: NCCCNC(=O)[C@H](Cc1cccc(F)c1)NC(=O)OCC1c2ccccc2-c2ccccc21 [Fmoc-3F-Phe-DAP]
- Diameter (nm), TEM [1]: 170 ± 8 nm
- morphology of siRNA nanoparticles/aggregates [1]: mixtures of spherical particles and one-dimensional fibril-like structures
- Relative TTF-1 mRNA Expression (Normalized to GAPDH) [2]: 51.8 ± 6.6
- knockdown (reduction) of TTF-1 mRNA [2]: ~48%

SMILES: NCCCNC(=O)[C@H](Cc1c(F)c(F)c(F)c(F)c1F)NC(=O)OCC1c2ccccc2-c2ccccc21 [Fmoc-F5-Phe-DAP]
- Diameter (nm), TEM [1]: 140 ± 12 nm
- morphology of siRNA nanoparticles/aggregates [1]: mixtures of spherical particles and one-dimensional fibril-like structures
- Relative TTF-1 mRNA Expression (Normalized to GAPDH) [2]: 38.6 ± 4.9
- knockdown (reduction) of TTF-1 mRNA [2]: ~61%
- knockdown efficacy group [2]: effective knockdown (slightly improved or similar relative to Lipofectamine)

SMILES: NCCCNC(=O)[C@H](Cc1ccccc1)NC(=O)OCC1c2ccccc2-c2ccccc21 [Fmoc-Phe-DAP]
- Diameter (nm), TEM [1]: 136 ± 7 nm
- morphology of siRNA nanoparticles/aggregates [1]: spherical micelle-like structures
- Relative TTF-1 mRNA Expression (Normalized to GAPDH) [2]: 17.4 ± 2.1
- knockdown (reduction) of TTF-1 mRNA [2]: 83%
- knockdown efficacy group [2]: highly effective knockdown (dramatically improved relative to Lipofectamine)

SMILES: CCCCCCC(=O)N[C@@H](Cc1ccccc1)C(=O)NCCCN [Hex-Phe-DAP]
- Diameter (nm), TEM [1]: 81 ± 10 nm
- morphology of siRNA nanoparticles/aggregates [1]: mixtures of spherical particles and one-dimensional fibril-like structures; also recorded: primarily exhibiting fibril and sheet-like structures that aggregate into bundles
- knockdown efficacy group [2]: ineffective knockdown (less effective than Lipofectamine)

SMILES: NCCCNC(=O)[C@H](Cc1ccccc1)NC(=O)CCCc1ccc2ccc3cccc4ccc1c2c34 [Pyr-Phe-DAP]
- Diameter (nm), TEM [1]: 50 ± 5.0 nm
- morphology of siRNA nanoparticles/aggregates [1]: mixtures of spherical particles and one-dimensional fibril-like structures; also recorded: dominated by fibril-like structures with some evidence of spherical nanoparticles
- Relative TTF-1 mRNA Expression (Normalized to GAPDH) [2]: 33.0 ± 2.2
- knockdown (reduction) of TTF-1 mRNA [2]: approximately 70%
- knockdown efficacy group [2]: effective knockdown (slightly improved or similar relative to Lipofectamine)
